Assay results published in patent US20040191312A1, “5-HT3 receptor agonists as neuroprotectors” (priority 2002, published 2004).

Key:
5-HT3 receptor = biological target: T1, 5-HT3 receptor (Homo sapiens, UniProt P46098); conditions: known 5-HT3 agonists; van Hooft et al. 1997, Morain et al. 1994; cited from earlier work
T1 sequence (P46098 24-478): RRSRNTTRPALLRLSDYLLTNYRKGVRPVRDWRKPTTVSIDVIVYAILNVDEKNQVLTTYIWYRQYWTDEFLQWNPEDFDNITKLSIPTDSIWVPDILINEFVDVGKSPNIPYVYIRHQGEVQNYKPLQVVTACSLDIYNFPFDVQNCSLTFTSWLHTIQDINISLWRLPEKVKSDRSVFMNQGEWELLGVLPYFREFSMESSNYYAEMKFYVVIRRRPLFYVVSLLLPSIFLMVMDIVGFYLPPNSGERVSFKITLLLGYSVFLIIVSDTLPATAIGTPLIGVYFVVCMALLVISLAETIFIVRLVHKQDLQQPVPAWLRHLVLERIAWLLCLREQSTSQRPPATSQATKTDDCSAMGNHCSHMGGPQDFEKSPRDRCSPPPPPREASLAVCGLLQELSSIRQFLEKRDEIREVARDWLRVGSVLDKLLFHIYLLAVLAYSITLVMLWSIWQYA

[1] = tested on: primary neuron cultures (OGD-induced cell death); assay: LOPAC library screen using the oxygen-glucose deprivation (OGD) assay, ATP content as index of cell viability; conditions: for activity at 10 µM: Rattus norvegicus, Primary neuron, read-out: Activity (% Cells Alive)
Method: Primary neuron cultures were prepared as follows: Brain cortices from E18 rat brains were dissected in DPBS without calcium and magnesium. They were digested at 37° C. for 30 min with trypsin. The digestion was stopped by addition of MEM, 10% Fetal Bovine Serum (FBS)and 10% Horse Serum. DNase (10 U/ml) was also added. The tissues were mechanically triturated using a pipette. This step was repeated until all cells were dissociated and then they were filtered through a 70 um Nitrex mesh. The cells were counted and plated in poly ornithine-coated 96-well culture plates at 5×10^5 cells/well in MEM containing 10% HS and 10% FBS. Three days later, the medium was changed to neurobasal-serum free containing B27 and SATO (Sodium selenite 4 μg/ml, transferrrin 100 μg/ml, BSA 100 μg/ml, progesterone 62 μg/ml, putrescine 160 μg/ml). 5-Fluoro-2′deoxyuridine (FdU 30 μM) was added to inhibit the dividing microglia from the cultures. The culture medium was changed every 3 days leaving half volume of the old (conditioned) media and adding half volume of fresh media. All experiments were performed in 11-12 days-old neuronal cultures. The cells were maintained at 37° C. in a 5% CO2 humidified incubator.
The compounds from the LOPAC library, obtained from Sigma, were plated in 96-wells at 200 μM (20× the final concentration).
The neuronal cultures were pre-incubated with the compounds (10 μM final concentration) for 2 hours. The cells were then subjected to oxygen glucose deprivation (OGD) for 120 min at 37° C. in presence of the compounds of the library. Cultures were placed in an anaerobic chamber (Forma Scientific) and washed two times with balanced salt solution (116 mM NaCl, 5.4 mM KCl, 1 mM NaH2PO4, 1.8 mm CaCl2, 26.2 mM NaHCO3, 0.01 mM glycine, pH=7.4) lacking glucose and aerated with an anaerobic gas mix (85% N2/5% CO2/10% H2) to remove residual oxygen. Control cultures were kept in the original neurobasal media but were submitted to the anaerobic conditions. MK-801 (10 μM), a non competitive NMDA receptor antagonist was used to prevent cell death after OGD caused by activation of the NMDA receptors. To terminate the oxygen glucose deprivation, the cells were removed from the anaerobic chamber and the OGD media was removed and replaced with neurobasal media. The compounds were added back for an additional 20 hours.
Cells were lysed and ATP content was measured as an index for cell viability using a commercially available reagent (Cell Titter Glo from Promega). This assay generates a luminescent signal produced by the luciferase reaction.

Row | Compound | EC50 (5-HT3 receptor) | activity at 10 µM [1] | Activity (% Cells Alive) ([1]; 10 μM compound, 2 h pre-incubation, OGD 120 min, compound added back 20 h, ATP content (Cell Titter Glo))
1 | Cc1[nH]c2ccc(O)cc2c1CCN [2-methyl-5-HT, reference compound] | 5 to 8 µM | – | –
2 | N=C(N)NC(=N)Nc1cccc(Cl)c1 [Formula I, 1-(m-chlorophenyl)-biguanide] | 0.4 µM | 106 ± 6% | –
3 | N=C(N)NC(=N)Nc1ccccc1 [Formula II, N-phenyl-imidocarbonimidicdiamide] | 22 µM | 67 ± 25% | –
4 | Cc1[nH]c2ccc(O)cc2c1CCN.O=C(O)/C=C\C(=O)O [Formula III, 2-methyl-5-hydroxytryptaminemaleate] | – | – | 106 ± 25%
5 | CN1CCN(c2ccc3ccccc3n2)CC1 [Formula IV, 2-(1-(4-methyl)-piperazineyl)quinolinedimaleate] | – | 103 ± 30% | –
6 | NC1CCN(c2cccc(Cl)n2)CC1 [Formula V, 1-(6-chloro-2-pyridinyl)-4-piperidinamine] | – | 80 ± 27% | –
